Results as given in article PMC7730549, “Design, Synthesis and Evaluation of New Bioactive Oxadiazole Derivatives as Anticancer Agents Targeting Bcl-2” (International Journal of Molecular Sciences, 2020).

How the values were obtained:
[1] = system: MDA-MB-231 (metastatic breast) cells; assay: MTT anti-proliferative assay, MDA-MB-231; type: cell-based, human; conditions: Bcl-2 expressing, mean of three independent experiments ±SEM
Experimental: (§1) Evaluation of anti-proliferative activity for the new 2-(1H-indol-3-yl)-5-substituted-1,3,4-oxadiazoles (4a–m) was carried out in Bcl-2-expressing human metastatic breast (MDA-MB-231) and cervical (HeLa) cancer cell lines, using the MTT endpoint assay, following 72 h incubation of test compound, according to previously established protocols. Further analysis within the non-adherent leukemic cell lines KG1a (acute myelogenous leukemia, Bcl-2 +ve) and Jurkat (T-cell leukemia, Bcl-2 −ve,) was carried out by using the CellTiter-Blue® assay according to published precedent.
(§2) Human breast cancer (MDA-MB-231) and cervical cancer (HeLa) cells, obtained from the ATCC (Manassas, VA, USA), were cultured and maintained as previously described. For each experiment, 3000 cells in 0.2 mL of medium were seeded into each well of a clear flat-bottomed 96-well plate and allowed to adhere for 24 h. The cells were then incubated with the test compound (from 10 mM stock in DMSO), over a 10-fold dilution series, with concentrations ranging from 0.00001 to 100 μM and each diluent being performed in triplicate. Cells were incubated with the test compound for 72 h, followed by treatment with 3-[4,5-dimethylthiazol-2-yl]-2,5-diphenyl tetrazolium bromide (MTT) solution and reading of absorbance (automated microplate) according to our previous protocol. Mean IC50 values were obtained by using GraphPad Prism 5 software (San Diego, CA, USA). For each concentration, three independent repeat experiments were carried out to establish reproducibility.

[2] = system: HeLa (cervical) cells; assay: MTT anti-proliferative assay, HeLa; type: cell-based, human; conditions: 72 h incubation, Bcl-2 expressing, mean of three independent experiments ±SEM
Experimental: as §1, §2

[3] = system: KG1a (AML) cells; assay: CellTiter-Blue cell viability assay, KG1a; type: cell-based, human; conditions: CellTitre-Blue assay, 24 h incubation, Bcl-2 +ve, mean of three independent experiments ±SEM
Experimental: as §1
(§3) Human acute myeloid leukemia KG1a and acute T-cell lymphocytic Jurkat cells were cultured and maintained as previously described. For each experiment 15,000 cells in 0.1 mL of medium were seeded into each well of a solid-black fluorescence 96-well plate and incubated for 24 h. The cells were then incubated with test compound (from 10 mM stock in DMSO), over a 10-fold dilution series, with concentrations ranging from 0.00001 to 100 μM and each diluent being performed in triplicate. Cells were incubated with test compound for 24 h, followed by treatment with CellTiter-Blue® solution and reading of fluorescence according to our previous protocol. Mean IC50 values were obtained by using GraphPad Prism 5 software (San Diego, CA, USA). For each concentration, three independent repeat experiments were carried out, to establish reproducibility.

[4] = system: Jurkat (T-cell leukemia) cells; assay: CellTiter-Blue cell viability assay, Jurkat; type: cell-based, human; conditions: for IC50: CellTitre-Blue assay, 24 h incubation, Bcl-2 −ve, mean of three independent experiments ±SEM
Experimental: as §1, §3

[5] = target: His-tagged Bcl-2 protein (Homo sapiens, UniProt P10415); assay: Competitive Bcl-2 ELISA binding assay (Bim peptide / His-tagged Bcl-2); conditions: for IC50: competition with biotinylated Bim peptide for His-tagged Bcl-2, mean ± SEM of three independent experiments; for Bcl-2 binding activity in the ELISA assay: competitive ELISA, Bim peptide
Chain of His-tagged Bcl-2 protein (P10415 whole entry, the tested form may be a part): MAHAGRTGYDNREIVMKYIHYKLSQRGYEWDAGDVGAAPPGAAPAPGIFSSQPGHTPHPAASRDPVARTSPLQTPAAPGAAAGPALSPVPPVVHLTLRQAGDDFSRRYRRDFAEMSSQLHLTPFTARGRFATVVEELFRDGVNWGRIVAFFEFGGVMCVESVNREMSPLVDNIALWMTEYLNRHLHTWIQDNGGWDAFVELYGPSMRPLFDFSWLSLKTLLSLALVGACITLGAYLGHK
Experimental: Compounds were evaluated according to their ability to compete with the pro-apoptotic BH3 domain Bim peptide for binding to His-tagged Bcl-2 protein, with a readout from anti-His secondary antibody conjugated to HRP (horseradish peroxidase) enzyme that produces a colorimetric readout in the presence of o-phenylenediamine (competitive ELISA assay).
The ELISA assay to determine the ability of test compounds (10-fold dilution series) to compete with the interaction between biotinylated Bim peptide and His-tagged Bcl-2 protein was carried out according to our previously published protocol. The addition of anti-His antibody containing horseradish peroxidase enzyme, followed by the addition of o-phenylenediamine and hydrogen peroxide, allowed for the determination of optical density, using a plate reader (450 nm). The experiments were carried out on three separate occasions, including both negative and positive controls. A plot of log μM concentration for each inhibitor against the percentage reduction in affinity for the Bim peptide was created, using non-linear regression curve analysis (GraphPad Prism 5, San Diego, CA, USA) and the software used to generate the IC50 value for the Bcl-2 inhibitor.

[6] = system: Bcl-2 expressing cell lines (MDA-MB-231, HeLa and KG1a); assay: Anti-proliferative activity across Bcl-2 expressing cell lines (MDA-MB-231, HeLa, KG1a); type: cell-based; conditions: Homo sapiens; MDA-MB-231, HeLa and KG1a taken together; read-out: IC50 values against Bcl-2 expressing cell lines
Experimental: as §1
Human breast cancer (MDA-MB-231) and cervical cancer (HeLa) cells, obtained from the ATCC (Manassas, VA, USA), were cultured and maintained as previously described. […] Cells were incubated with the test compound for 72 h, followed by treatment with 3-[4,5-dimethylthiazol-2-yl]-2,5-diphenyl tetrazolium bromide (MTT) solution and reading of absorbance (automated microplate) according to our previous protocol. […]
Human acute myeloid leukemia KG1a and acute T-cell lymphocytic Jurkat cells were cultured and maintained as previously described. For each experiment 15,000 cells in 0.1 mL of medium were seeded into each well of a solid-black fluorescence 96-well plate and incubated for 24 h. […]

[7] = Homo sapiens, MDA-MB-231, 72 h incubation

Row | Compound | IC50 ([1]; 72 h incubation) [µM] | IC50 [2] [µM] | IC50 [3] [µM] | IC50 [4] [µM] | IC50 [5] [µM] | IC50 [1, 7] [µM] | IC50 ([2]; Homo sapiens, HeLa) [µM] | IC50 ([3]; Homo sapiens, KG-1a) [µM] | IC50 ([4]; Homo sapiens, Jurkat) [µM] | melting point [°C] | Bcl-2 binding activity in the ELISA assay [5] | inhibitory effect in the Bcl-2 negative cell line ([4]; Jurkat, Bcl-2 negative) | binding potency relative to positive control gossypol ([5]; Bcl-2 ELISA binding affinity assay) | IC50 [6] [µM]
1 | 2-(1H-Indol-3-yl)-5-(5-methoxy-1H-indol-2-yl)-1,3,4-oxadiazole [Compound 4m] | 1.79 ± 0.07 | 1.19 ± 0.4 | 1.87 ± 0.14 | 57.5 ± 0.58 | 0.84 ± 0.05 |  |  |  |  |  |  |  |  | 
2 | Fc1ccc(OCc2nnc(-c3c[nH]c4ccccc34)o2)cc1 [Compound 4a, 2-(1H-Indol-3-yl)-5-(4-fluorophenoxymethyl)-1,3,4-oxadiazole] |  |  |  |  |  | 36.1 ± 3.4 | 12.9 ± 1.33 | > 100 | > 100 | 210 to 212 |  |  |  | 
3 | Cc1ccc(OCc2nnc(-c3c[nH]c4ccccc34)o2)cc1 [Compound 4b, 2-(1H-Indol-3-yl)-5-(4-methylphenoxymethyl)-1,3,4-oxadiazole] |  |  |  |  | > 100 | 31.5 ± 4.8 | 13.3 ± 0.32 | > 100 | > 100 | 201 to 203 | inactive |  |  | 
4 | CC(C)(C)c1ccc(OCc2nnc(-c3c[nH]c4ccccc34)o2)cc1 [Compound 4c, 2-(1H-Indol-3-yl)-5-(4-tert-butylphenoxymethyl)-1,3,4-oxadiazole] |  |  |  |  | 1.17 ± 0.13 | 3.5 ± 0.16 | 0.9 ± 0.03 | 3.45 ± 0.8 | > 100 | 218 to 220 |  |  |  | 
5 | c1ccc(OCc2nnc(-c3c[nH]c4ccccc34)o2)cc1 [Compound 4d, 2-(1H-Indol-3-yl)-5-(phenoxymethyl)-1,3,4-oxadiazole] |  |  |  |  | 1.41 ± 0.01 | 1.63 ± 0.08 | 0.57 ± 0.04 | 2.56 ± 0.07 | > 100 | 195 to 197 |  |  |  | 
6 | COc1cccc(Cc2nnc(-c3c[nH]c4ccccc34)o2)c1 [Compound 4e, 2-(1H-Indol-3-yl)-5-(3-methoxybenzyl)-1,3,4-oxadiazole] |  |  |  |  | 2.72 ± 0.2 | 6.28 ± 0.2 | 3.14 ± 0.14 | 3.66 ± 0.15 | > 100 | 208 to 210 |  |  |  | 
7 | c1ccc(Cc2nnc(-c3c[nH]c4ccccc34)o2)cc1 [Compound 4f, 2-(1H-Indol-3-yl)-5-benzyl-1,3,4-oxadiazole] |  |  |  |  |  | > 100 | > 100 | > 100 | > 100 | 187 to 189 |  |  |  | 
8 | O=[N+]([O-])c1ccc(-c2nnc(-c3c[nH]c4ccccc34)o2)cc1 [Compound 4g, 2-(1H-Indol-3-yl)-5-(4-nitrophenyl)-1,3,4-oxadiazole] |  |  |  |  |  | 6.95 ± 0.5 | 1.6 ± 0.12 | > 100 | > 100 | 215 to 217 |  |  |  | 
9 | COc1ccc(-c2nnc(-c3c[nH]c4ccccc34)o2)cc1 [Compound 4h, 2-(1H-Indol-3-yl)-5-(4-methoxyphenyl)-1,3,4-oxadiazole] |  |  |  |  |  | 6.02 ± 0.12 | 0.92 ± 0.08 | 2.21 ± 0.1 | 60.59 ± 0.12 | 210 to 212 |  |  |  | 
10 | COc1cc(-c2nnc(-c3c[nH]c4ccccc34)o2)cc(OC)c1OC [Compound 4i, 2-(1H-Indol-3-yl)-5-(3,4,5-trimethoxyphenyl)-1,3,4-oxadiazole] |  |  |  |  | 21 ± 1.09 | 1.19 ± 0.1 | 1.22 ± 0.9 | 0.975 ± 0.02 | 12.2 ± 1.13 | 221 to 222 | only moderate Bcl-2 binding activity |  |  | 
11 | FC(F)(F)c1ccc(-c2nnc(-c3c[nH]c4ccccc34)o2)cc1 [Compound 4j, 2-(1H-Indol-3-yl)-5-(4-trifluoromethylphenyl)-1,3,4-oxadiazole] |  |  |  |  | 0.33 ± 0.05 | 0.52 ± 0.15 | 0.88 ± 0.16 | 0.73 ± 0.09 | > 100 | 224 to 226 |  | no inhibitory effects | two-fold more potent | 0.52 to 0.88
12 | Cc1ccc(-c2nnc(-c3c[nH]c4ccccc34)o2)cc1 [Compound 4k, 2-(1H-Indol-3-yl)-5-(4-methylphenyl)-1,3,4-oxadiazole] |  |  |  |  | 0.43 ± 0.05 | 0.92 ± 0.19 | 1.28 ± 0.35 | 1.47 ± 0.13 | > 100 | 198 to 200 |  |  |  | 
13 | c1ccc2c(-c3nnc(-c4ccc(N5CCCCC5)nc4)o3)c[nH]c2c1 [Compound 4l, 2-(1H-Indol-3-yl)-5-(6-(piperidin-1-yl)-pyridin-3-yl)-1,3,4-oxadiazole] |  |  |  |  |  | 2.97 ± 0.06 | 1.52 ± 0.03 | 4.5 ± 0.31 | 61.4 ± 1.4 | 240 to 242 |  |  |  | 
